Reference: patent US12163156B2, “Cell induction method” (INSTITUTE OF ZOOLOGY, CHINESE ACADEMY OF SCIENCES, priority 2018, dated 2024)

Assays:
[1] = test system: human embryonic hepatocytes; test: In vitro amplification of human embryonic hepatocytes; format: cell-based; settings: for cells amplified (multiple): 12 days subculturing (3 generations in total)
Description: (1) Coating the plate. The cell culture plate is coated with rat tail tendon collagen (Thermo scientific, A1048301, 3 mg/mL) at a concentration of […]. Taking a 24-well plate as an example, the bottom area of each hole is 1.9 cm^2, and […] is needed per well (about 3.2 μl); 3.2 μl of rat tail tendon collagen is dissolved in 500 μl of 20 mM glacial acetic acid, adding to the well to incubate in cell culture incubator at 37° C. for 1 h, and after aspirating and abandoning the solution, washing with PBS for 3 times.
(2) Resuscitation of human embryonic hepatocytes. Human embryonic hepatocytes are taken out from liquid nitrogen tanks (freezing date: Jan. 15, 2014; freezing medium: cell banker 2; the number of frozen cells: 2×10^7/tube), quickly placing in a 37° C. water bath, immediately after thawing the cells are sucked into a 15 mL centrifuge tube containing 5 mL of hepatocyte medium (control group), then centrifuging at 50 g, 4° C. for 5 min. The supernatant is discarded, then the cells are resuspended in 500 μl of hepatocyte medium with the number of 1.16×10^6 cells, and the cell resuscitation rate is 5.8%.
(3) Seeding the human embryonic hepatocytes. […] After hepatocyte medium containing 10 μM small molecule (−)-Blebbistatin, and hepatocyte medium containing 20 μM small molecule (−)-Blebbistatin hepatocyte medium are respectively seeded 24 h, for each group the digested cells from 3 wells are counted to calculate the cell attachment rate. After seeding for 72 h, for each group 3 wells of cells are digested and counted. […] A portion of the cells per well (⅖ of the cells counted) are taken for RNA extraction to detect the expression of human hepatocyte-associated genes.
(4) The first passage of human embryonic hepatocytes. […] A portion of the cells per well (⅖ of the cells counted) are taken for RNA extraction to detect the expression of human hepatocyte-associated genes.
(5) The second passage of human embryonic hepatocytes. […] The medium is changed every 2 days, and after continuing to culture for 144 h (6 days), the cells are digested and counted. […]

ICR female mice = test: In vivo experiment: ventral fat content after injection into the ventral side of mice; design: species or system mouse; settings: 0.5 mg/kg injected into the ventral side once a day; for ventral fat content: 19 days, drug stopped for 32 days, vs DMSO group
Description: In vivo experiment: the same batch of 6-8 week-old ICR female mice are selected and randomly divided into two groups, 5 in each group. As to one group, small molecule (−)-Blebbistatin or (S)-(−)-Blebbistatin O-Benzoate (0.5 mg/kg, dissolved in 10% DMSO+2% Tween 80+normal saline) is injected into the ventral side of the mice; as to the other group, the same amount of DMSO as the small molecule group is injected in the same way as the experimental group. The injection is performed once a day, 19 days after the injection, and the drug is stopped for 32 days. The mice are sacrificed by cervical dislocation, and the ventral fat content is observed.

adult hepatocytes = test: Small molecule amplification of adult hepatocytes; format: cell-based, human; settings: for number of cells after 6 days of culturing: control group 1.59×10^4
Description: (1) The method for coating the plate is as described above.
(2) Resuscitation and culture of adult hepatocytes. Adult hepatocytes (M00995-P […] human, Bioreclamation IVT) are taken out from a liquid nitrogen tank, then quickly placing in a 37° C. water bath, after thawing the cells are added to 5 mL of 37° C. pre-heated hepatocyte inoculation medium (InVitroGRO CP Medium), after counting the cells are inoculated in a 24-well plate at the density of 9×10^4/well, 2-4 h after hepatocyte adherence, aspirating and abandoning the hepatocyte inoculation medium, and respectively adding hepatocyte culture control medium, 10 μm small molecule medium, and 20 μm small molecule medium. The media are changed every 2 days. The number of cells is estimated from the photograph on day 2. After 4 days, the cells of the 20 μm small molecule medium group are changed to culture in 10 μm small molecule medium. The cells are counted after co-culturing for 6 days. A portion of the cells are taken for RNA extraction to detect the expression of human hepatocyte-specific genes.
(3) Passage of adult hepatocytes. 4.7×10^4 of the hepatocytes cultured in the above-mentioned control group, and 8×10^4 of the hepatocytes cultured 10 μm small-molecule medium are respectively re-inoculated into the 24-well plates coated with rat tail tendon collagen, and the media are changed every two days. After 6 days, photos are taken to record cell growth.

[2] = test system: mouse adult primary hepatocytes; test: In vitro amplification of mouse adult primary hepatocytes (Alb-GFP)
Description: Alb-Cre mice are introduced from BRL Medicine, Cre recombinase is only expressed in mature hepatocytes expressing albumin; Rosa26/mTmG mice are introduced from Charles River, and a red and green fluorescence reporter system is incorporated into the Rosa26 locus of this kind of mouse; normally a tomato red fluorescent protein is expressed in the cells, while in the case of Cre recombination it is changed to express a green fluorescent protein (GFP). Alb-Cre adult mice are hybridizedwith Rosa26/mTmG mice to obtain offspring Alb-Cre×Rosa26/mTmG mice, and mature hepatocytes of the offspring are labeled green, and other tissue cells present the red fluorescent.
Alb-Cre×Rosa26/mTmG adult mice are sacrificed by cervical dislocation, taking out the hepatic lobes, cutting into small pieces, blowing and washing repeatedly with 100 volumes of pre-cooled PBS to remove the blood cells until the washing solution is not red; adding 3-5 volumes of collagenase IV (ThermoFisher, 17104019, preheated at 37° C.) to digest in incubator at 37° C. for 30-40 min, and blowing 2-3 times during the digestion, then centrifuging and removing the supernatant. […] The mouse hepatocyte medium comprises: DMEM/F12 (gibco, 10565018), adding N2 additive (100×, Gibco, 17502048), B27 additive (50×, Gibco, 17504044), 5% bovine serum albumin (1000×, Sigma, A8022), β-mercaptoethanol (1000×, Gibco, 21985023), GlutaMAX (200×, Gibco, 35050-061), non-essential amino acids (100×, Gibco, 11140-050), 1 μg/mL insulin (Roche, 11376497001), hepatocyte growth factor (10 ng/mL, R&D, 294-HG-025), transforming growth factor β inhibitor A83-01 (5 μm, stemgent, 04-0014), glycogen synthase kinase 3β inhibitor Chir99021 (6 μM, stemgent, 04-0004-10), macrophage stimulating protein 1 and 2 inhibitor XMU-MP-1 (2-5 μM, MCE, HY-100526) fibroblast growth factor 4 (10 ng/mL, R&D, 5846-f4-025), double antibiotics.
Without addition of Myosin II inhibitor (−)-Blebbistatin or (S)-(−)-Blebbistatin O-Benzoate, an equal volume of DMSO is added as a control, and the cells are respectively subcultured 3 times (P3), 5 times (P5), and seven times (P7).

[3] = test system: Mouse embryonic fibroblasts; test: Transdifferentiation of mouse embryonic fibroblasts into adipocytes, oil red O staining; format: cell-based; settings: 10 μM added to the original adipocyte induction medium (Myosin inhibitor + BMP4); P<0.001
Description: Taking a 12-well plate as an example (coming, 3335), for each well, preparing 20 μg/ml Matrigel solution (BD, 354277) with 1×DMEM and coating for 12 hours; then the coating solution is removed, washing with 1×PBS. Mouse embryonic fibroblasts (C57, prepared by E13.5) or adult foreskin fibroblasts (HFF20y, Beijing Stem Cell Bank) are uniformly seeded in each well, 1×10^4 cells per well; incubating in basic medium (high glucose DMEM (Gibco, C12430500BT), double antibiotics) added with 10% fetal bovine serum (Gibco, 16000-044) for 24 hours. The medium is removed, then washing with PBS. […] The identification of adipocytes is performed by oil red staining of cells, oil red O staining solution (cell-specific, Solarbio, […]) is used, and the details are as follows: removing the medium, adding ORO Fixative to fix for 10-15 min, removing the ORO Fixative, and placing in flowing air for 10-15 min. At this time, ORO Stain is prepared in a ratio of ORO Stain A:ORO Stain B=3:2, standing for 10 min after mixing, then adding to the well; the staining solution is removed after dip dyeing for 15 min, adding 60% isopropanol to rinse for 20-30 s, and washing with distilled water for 3 times, then taking photos under an optical microscope. The neutral fats are orange-red or orange-colored, and the phospholipids are pink.

CYP1A2 gene = CYP1A2 gene induction with omeprazole in small molecule-amplified adult hepatocytes; format: cell-based, human; settings: 50 μm omeprazole in 10 μm small molecule medium, 48 hours, vs DMSO
Description: (4) 10CYP1A2 adult hepatocytes amplified in 10 μm small medium. 3×10^5 hepatocytes are induced and inoculated in a 24-well plate coated with rat tail tendon collagen, after culturing in a 10 μm small molecule medium for 24 h, then replacing the medium with a 10 μm small molecule medium with 50 μm omeprazole, the control group is a 10 μm small molecule medium containing DMSO, and 48 hours later the cells are collected to detect the expression of the CYP1A2 gene.

Compound: Cc1ccc2c(c1)C(=O)C1(O)CCN(c3ccccc3)C1=N2 (single isomer, unassigned; (-)) [(−)-Blebbistatin]
- human hepatocyte-specific genes albumin and alpha-fetoprotein expression ([1]; 10 μM and 20 μM small molecule media, 12 days subculturing, real-time quantitative PCR): still expressed
- cells amplified (multiple) ([1]; 10 μM small molecule medium): about 22.1 times
- cells amplified (multiple) ([1]; 20 μM small molecule medium): about 13.0 times
- ventral fat content (ICR female mice): significantly increase
- ventral fat content (ICR female mice; listed as Ble): significant increase
- number of cells after 6 days of culturing (adult hepatocytes; 10 μm group): 6.47×10^4 (SD=1.24)
- subculture of human hepatocytes (adult hepatocytes; 10 μm small molecule medium, control medium cannot): can make human hepatocytes subculture
- number of cells after 6 days of culturing (adult hepatocytes; # group: 20 μm for 4 days then 10 μm for 2 days): 9.47×10^4 (SD=0.98)
- expression of human hepatocyte specific genes albumin, AFP, CYP1A2, CYP3A4 (adult hepatocytes; adult hepatocytes amplified with small molecules): still express
- expression of the proliferating cell nuclear antigen (PCNA) gene (adult hepatocytes; small molecule group vs control group): significantly higher
- amplification effect on adult hepatocytes (cell number day 6 / day 2) (adult hepatocytes; small molecule groups vs control): significant amplification effect
- hepatocyte clusters with Alb expression ([2]; 5 μM in mouse hepatocyte medium, fibronectin-coated dish, one week): green hepatocyte clusters with Alb expression are observed
- subculturing in vitro ([2]; mouse hepatocytes in medium with Myosin inhibitor): at least 20 generations
- long-term amplification of AlB-GFP-positive hepatocytes ([2]; vs DMSO control, subcultured P3, P5, P7): significantly promotes

Compound: Cc1ccc2c(c1)C(=O)[C@]1(OC(=O)c3ccccc3)CCN(c3ccccc3)C1=N2 [(S)-(−)-Blebbistatin O-Benzoate]
- ventral fat content increase (ICR female mice; without optimization): about 50%
- passaged in vitro ([2]; treated mouse hepatocytes): more than 20 times

Compound: Cc1cccc(-c2nn(C(=S)Nc3ccccc3)cc2-c2ccnc3ccccc23)n1 [A83-01]
- adipocyte induction efficiency [3]: up to 20%

Compound: COc1ccc2[nH]c([S+]([O-])Cc3ncc(C)c(OC)c3C)nc2c1 (stereo not shown) [omeprazole]
- expression of CYP1A2 gene (CYP1A2 gene): can be increased

Compound: NC(=O)c1ccc(-c2nc(-c3ccc4c(c3)OCO4)c(-c3ccccn3)[nH]2)cc1 [SB431542]
- adipocyte induction efficiency [3]: 18%
